# Measurements as given in ChEMBL document CHEMBL4414648, “Novel Benzohydroxamate-Based Potent and Selective Histone Deacetylase 6 (HDAC6) Inhibitors Bearing a Pentaheterocyclic Scaffold: Design, Synthesis, and Biological Evaluation” (J Med Chem, 2019).
# Legend:
# [1] = Stability in human plasma assessed as parent compound remaining at 100 uM after 4 hrs by LC-MS/MS analysis; type: ADME, cell-free; conditions: read-out: Stability
# [2] = Stability in rat liver S9 fraction assessed as parent compound remaining at 5 uM after 90 mins in presence of NADPH by LC-MS/MS analysis; type: ADME, subcellular; conditions: read-out: Stability
# PBMC = assay: Cytotoxicity against human PBMC cells after 72 hrs by CellTiter 96 aqueous one solution assay; type: cell-based
# 697 = assay: Cytotoxicity against human 697 cells after 48 hrs by CellTiter 96 aqueous one solution assay; type: cell-based; conditions: Homo sapiens, 697, 48 h
# [3] = Stability in rat plasma assessed as parent compound remaining at 100 uM after 4 hrs by LC-MS/MS analysis; type: ADME, cell-free; conditions: read-out: Stability
# [4] = Stability in human liver S9 fraction assessed as parent compound remaining at 5 uM after 90 mins in presence of NADPH by LC-MS/MS analysis; type: ADME, subcellular; conditions: read-out: Stability
# [5] = Selectivity ratio of IC50 for N-terminal His-tagged human HDAC11 expressed in baculovirus expression system to IC50 for human N-terminal GST-tagged HDAC6 expressed in baculovirus infected sf9 insect cells
# [6] = Selectivity ratio of IC50 for C-terminal GST-tagged human HDAC5 to IC50 for human N-terminal GST-tagged HDAC6 expressed in baculovirus infected sf9 insect cells
# [7] = Selectivity ratio of IC50 for C-terminal His-tagged human HDAC9 (604 to 1066 residues) expressed in baculovirus infected sf9 insect cells to IC50 for human N-terminal GST-tagged HDAC6 expressed in baculovirus infected sf9 insect cells
# [8] = Selectivity ratio of IC50 for N-terminal GST-tagged human HDAC7 (518 to end residues) expressed in baculovirus infected sf9 insect cells to IC50 for human N-terminal GST-tagged HDAC6 expressed in baculovirus infected sf9 insect cells
# [9] = Selectivity ratio of IC50 for C-terminal His-tagged human HDAC8 expressed in baculovirus infected sf9 insect cells to IC50 for human N-terminal GST-tagged HDAC6 expressed in baculovirus infected sf9 insect cells
# [10] = Selectivity ratio of IC50 for N-terminal Flag-tagged human HDAC10 (2 to 631 residues) expressed in baculovirus infected sf9 insect cells to IC50 for human N-terminal GST-tagged HDAC6 expressed in baculovirus infected sf9 insect cells
# [11] = Selectivity ratio of IC50 for human HDAC4 expressed in baculovirus infected sf9 insect cells to IC50 for human N-terminal GST-tagged HDAC6 expressed in baculovirus infected sf9 insect cells
# Histone deacetylase = assay: Inhibition of HDAC in human 697 cells assessed as increase in H3 acetylation at 1000 nM incubated for 16 hrs by ELISA; type: cell-based; conditions: human, 697, 16 h, 1 µM
# [12] = biological target: T1, Protein deacetylase HDAC6 (Homo sapiens, UniProt Q9UBN7); assay: biochemical
# T1 sequence (Q9UBN7 whole entry): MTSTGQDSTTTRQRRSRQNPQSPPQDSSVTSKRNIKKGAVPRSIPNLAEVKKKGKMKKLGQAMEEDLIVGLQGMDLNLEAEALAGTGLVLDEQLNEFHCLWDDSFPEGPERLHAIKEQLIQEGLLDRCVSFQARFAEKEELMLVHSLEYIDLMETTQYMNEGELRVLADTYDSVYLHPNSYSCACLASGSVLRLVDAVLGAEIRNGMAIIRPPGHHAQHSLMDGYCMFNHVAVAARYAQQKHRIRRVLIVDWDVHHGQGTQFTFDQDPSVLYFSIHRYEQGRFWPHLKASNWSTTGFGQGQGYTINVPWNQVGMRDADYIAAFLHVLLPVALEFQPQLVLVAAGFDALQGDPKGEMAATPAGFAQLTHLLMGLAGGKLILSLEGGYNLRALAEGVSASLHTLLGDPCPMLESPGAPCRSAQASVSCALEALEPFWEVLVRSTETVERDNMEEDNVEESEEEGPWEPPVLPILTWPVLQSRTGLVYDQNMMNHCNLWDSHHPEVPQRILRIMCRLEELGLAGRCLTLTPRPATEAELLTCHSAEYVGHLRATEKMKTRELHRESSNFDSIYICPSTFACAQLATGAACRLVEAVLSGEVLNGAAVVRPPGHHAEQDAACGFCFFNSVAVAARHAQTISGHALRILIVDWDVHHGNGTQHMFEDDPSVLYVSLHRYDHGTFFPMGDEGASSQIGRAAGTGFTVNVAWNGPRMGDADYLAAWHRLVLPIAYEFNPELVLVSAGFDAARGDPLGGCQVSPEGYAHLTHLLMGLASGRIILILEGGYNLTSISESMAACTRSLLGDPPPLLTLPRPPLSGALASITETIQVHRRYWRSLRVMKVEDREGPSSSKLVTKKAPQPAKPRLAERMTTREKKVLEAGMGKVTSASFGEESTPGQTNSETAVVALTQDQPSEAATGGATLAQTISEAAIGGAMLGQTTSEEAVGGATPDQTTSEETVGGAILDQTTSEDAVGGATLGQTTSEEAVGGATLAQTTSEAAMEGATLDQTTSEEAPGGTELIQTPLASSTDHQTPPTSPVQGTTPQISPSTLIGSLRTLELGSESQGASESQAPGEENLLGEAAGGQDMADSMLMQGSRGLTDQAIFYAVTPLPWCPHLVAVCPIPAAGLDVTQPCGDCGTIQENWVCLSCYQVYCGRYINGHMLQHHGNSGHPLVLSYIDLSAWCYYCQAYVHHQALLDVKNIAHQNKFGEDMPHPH
SMILES,"remaining at 4 h, 100 µM [1]","remaining at […], 5 µM [2]","remaining at 4 h, 100 µM [3]","remaining at […], 5 µM [4]",IC50 [12],IC50 (PBMC),IC50 697,further results
Cn1c(Sc2c(F)cc(C(=O)NO)cc2F)nnc1-c1cccnn1,100%,58%,98%,79%,0.013 µM,> 1 µM,> 1 µM,Ratio IC50 [5]: 278; inhibition (INH) (Histone deacetylase): Active; Ratio IC50 [6]: 34; Ratio IC50 [7]: 16; Ratio IC50 [8]: 15; Ratio IC50 [9]: 34; Ratio IC50 [10]: 372; Ratio IC50 [11]: 33
O=C(NO)c1ccc(Cc2nnc(-c3ccccc3)[nH]2)cc1,,,,,0.005 µM,,,
Cc1csc(Nc2ccc(C(=O)NO)cc2)n1,,,,,0.137 µM,,,
O=C(NO)c1ccc(Sc2nnc(-c3ccccc3)s2)cc1,,,,,0.006 µM,,,
Cn1c(Sc2c(F)cc(C(=O)NO)cc2F)nnc1-c1ccc(CN2CCCCC2)cc1,90%,74%,75%,69%,,> 1 µM,> 1 µM,Ratio IC50 [5]: 342; Ratio IC50 [6]: 101; Ratio IC50 [7]: 36; Ratio IC50 [8]: 83; Ratio IC50 [9]: 32; Ratio IC50 [10]: 814; Ratio IC50 [11]: 126
O=C(NO)c1ccc(Cc2noc(-c3ccccc3)n2)cc1,,,,,0.006 µM,,,
O=C(NO)c1ccc(Nc2nnc(-c3ccccc3)s2)cc1,,,,,0.066 µM,,,
Cc1cc(-c2nnc(Sc3ccc(C(=O)NO)c(F)c3)n2C)nn1C,,,,,2.24 µM,,,
CCCCN(Cc1ccc(C(=O)NO)cc1)C(=O)Nc1ccccc1 [NEXTURASTAT A],100%,,40%,,,,0.401 µM,
Cn1c(Sc2c(F)cc(C(=O)NO)cc2F)nnc1-c1ncccc1F,97%,70%,100%,80%,,> 1 µM,> 1 µM,Ratio IC50 [5]: 250; inhibition (INH) (Histone deacetylase): Active; Ratio IC50 [6]: 54; Ratio IC50 [7]: 24; Ratio IC50 [8]: 38; Ratio IC50 [9]: 64; Ratio IC50 [10]: 432; Ratio IC50 [11]: 53
Cc1cc(-c2nnc(Sc3c(F)c(F)c(C(=O)NO)c(F)c3F)n2C)nn1C,,,,,2.53 µM,,,
Cn1c(Cc2ccc(C(=O)NO)cc2)nnc1-c1ccccc1,,,,,0.017 µM,,,
O=C(NO)c1ccc(Cn2cccn2)cc1,,,,,0.102 µM,,,
O=C(NO)c1cc(F)c(Cn2nnc(-c3ncccn3)n2)c(F)c1,93%,96%,78%,89%,,> 1 µM,> 1 µM,

# Continued, in another order:
"remaining at 4 h, 100 µM [1]","remaining at […], 5 µM [2]","remaining at 4 h, 100 µM [3]","remaining at […], 5 µM [4]",IC50 [12],SMILES,IC50 (PBMC),IC50 697,further results
97%,6%,72%,83%,,CCN(CC)Cc1ccc2cc(COC(=O)Nc3ccc(C(=O)NO)cc3)ccc2c1 [GIVINOSTAT],0.313 µM,0.1 µM,
96%,97%,87%,86%,,O=C(NO)c1cc(F)c(Cn2nnc(-c3ccccn3)n2)c(F)c1,> 1 µM,> 1 µM,Ratio IC50 [5]: 696; Ratio IC50 [6]: 141; Ratio IC50 [7]: 102; Ratio IC50 [8]: 119; Ratio IC50 [9]: 138; Ratio IC50 [10]: 1463; Ratio IC50 [11]: 139
88%,48%,77%,74%,0.003 µM,Nc1ccc(-c2nnn(Cc3c(F)cc(C(=O)NO)cc3F)n2)cc1,> 1 µM,> 1 µM,Ratio IC50 [5]: 86; inhibition (INH) (Histone deacetylase): Active; Ratio IC50 [6]: 144; Ratio IC50 [7]: 118; Ratio IC50 [8]: 325; Ratio IC50 [9]: 230; Ratio IC50 [10]: 138; Ratio IC50 [11]: 162
99%,71%,87%,83%,,Cn1c(Sc2c(F)cc(C(=O)NO)cc2F)nnc1-c1cccs1,> 1 µM,> 1 µM,Ratio IC50 [5]: 254; inhibition (INH) (Histone deacetylase): Active; Ratio IC50 [6]: 171; Ratio IC50 [7]: 55; Ratio IC50 [8]: 61; Ratio IC50 [9]: 21; Ratio IC50 [10]: 763; Ratio IC50 [11]: 155
79%,,45%,,,O=C(NO)c1ccc(CC(=O)N(CCO)c2ccccc2)cc1,,8.33 µM,
100%,,18%,,0.005 µM,COc1ccc(CC(=O)N[C@@H](Cc2cscn2)C(=O)Nc2ccc(C(=O)NO)cc2)cc1OC,,> 10 µM,
76%,99%,99%,83%,0.007 µM,O=C(NO)c1ccc(Cn2nnc(-c3ncccn3)n2)cc1,> 1 µM,> 1 µM,Ratio IC50 [5]: 103; Ratio IC50 [6]: 721; Ratio IC50 [7]: 246; Ratio IC50 [8]: 146; Ratio IC50 [9]: 46; Ratio IC50 [10]: 111; Ratio IC50 [11]: 665
,,,,0.006 µM,O=C(NO)c1ccc(Sc2nnc(-c3ccccc3)o2)cc1,,,
,,,,0.66 µM,O=C(NO)c1ccc(-c2nnc(-c3ccccc3)o2)cc1,,,
,,,,0.009 µM,O=C(NO)c1ccc(Cn2nnnc2-c2ccccc2)cc1,,,
98%,,38%,,,CN1CCc2c(c3ccccc3n2Cc2ccc(C(=O)NO)cc2)C1 [TUBASTATIN A],,2.01 µM,
100%,,12%,,,O=C(NO)c1cnc(NC2(c3ccccc3)CC2)nc1,,3.39 µM,
,,,,0.016 µM,O=C(NO)c1ccc(Cc2nnc(-c3ccccc3)s2)cc1,,,
,,,,0.062 µM,O=C(NO)c1ccc(Sc2ncc(-c3ccccc3)s2)cc1,,,
100%,,91%,,,O=C(CCCCCCNC(=O)c1cnc(N(c2ccccc2)c2ccccc2)nc1)NO [RICOLINOSTAT],,0.201 µM,
93%,32%,84%,68%,,O=C(NO)c1cc(F)c(Cc2nnc(-c3ccncc3)s2)c(F)c1,> 1 µM,> 1 µM,Ratio IC50 [5]: 291; inhibition (INH) (Histone deacetylase): Active; Ratio IC50 [6]: 67; Ratio IC50 [7]: 44; Ratio IC50 [8]: 77; Ratio IC50 [9]: 139; Ratio IC50 [10]: 507; Ratio IC50 [11]: 101
